Where two headings read alike, the source gives them in different places.

The source of these data is patent US20250288634A1, “Fenugreek Formulation for Lowering Blood Glucose and Weight Loss” (priority 2024, published 2025).

In data set [1] the target is dipeptidyl-peptidase 4 (DPP4) (Homo sapiens, UniProt P27487). The note with it: cited from earlier work.
The conditions of data set [2]: cited from earlier work.
A short description of data set [3]: Clinical Case Example #2: regulating blood glucose levels, body weight, tolerability. In kind it is in vivo, human. The conditions noted are these: within just a few days of using, person with type-2 diabetes on metformin. As to the method: Clinical Case Example #2: The therapeutic composition (i.e. fenugreek formulation) used in Clinical Case Example #1 above was also tested for efficacy on regulating blood glucose levels. The subject was a person, height of 5 feet 6 inches and with baseline a body weight of about 175 lbs. Despite long-term management of their type-2 diabetes with metformin, they still had blood glucose readings almost continuously in the low to high 200s mg/dL (e.g. 204, 228, 277) with hemoglobin A1C of 7.2%. A typical fasting blood sugar for them was 189.
Due to consistently high blood glucose levels, their endocrinologist prescribed Januvia (sitagliptin, a dipeptidyl peptidase-4 (DPP-4) inhibitor). […]
When sufficiently recovered from the pancreatitis, they started using the fenugreek formulation of this invention (combination of fenugreek, curcumin, and chromium picolinate) while they continued taking metformin. Within a few days of starting the fenugreek formulation, their blood glucose readings declined from well over 200 for most of the day, to around 180, with excursions into the mid-200s only after high-sugar meals (whereas prior to this regimen, their blood glucose was in the 200s at a steady state). Occasionally, while on the fenugreek formulation regimen, they had blood glucose readings down to 110. This was the first time in half a decade that the subject had readings as low as 110. […]

dipeptidyl-peptidase 4 (DPP4), sequence (P27487 whole entry, species assumed): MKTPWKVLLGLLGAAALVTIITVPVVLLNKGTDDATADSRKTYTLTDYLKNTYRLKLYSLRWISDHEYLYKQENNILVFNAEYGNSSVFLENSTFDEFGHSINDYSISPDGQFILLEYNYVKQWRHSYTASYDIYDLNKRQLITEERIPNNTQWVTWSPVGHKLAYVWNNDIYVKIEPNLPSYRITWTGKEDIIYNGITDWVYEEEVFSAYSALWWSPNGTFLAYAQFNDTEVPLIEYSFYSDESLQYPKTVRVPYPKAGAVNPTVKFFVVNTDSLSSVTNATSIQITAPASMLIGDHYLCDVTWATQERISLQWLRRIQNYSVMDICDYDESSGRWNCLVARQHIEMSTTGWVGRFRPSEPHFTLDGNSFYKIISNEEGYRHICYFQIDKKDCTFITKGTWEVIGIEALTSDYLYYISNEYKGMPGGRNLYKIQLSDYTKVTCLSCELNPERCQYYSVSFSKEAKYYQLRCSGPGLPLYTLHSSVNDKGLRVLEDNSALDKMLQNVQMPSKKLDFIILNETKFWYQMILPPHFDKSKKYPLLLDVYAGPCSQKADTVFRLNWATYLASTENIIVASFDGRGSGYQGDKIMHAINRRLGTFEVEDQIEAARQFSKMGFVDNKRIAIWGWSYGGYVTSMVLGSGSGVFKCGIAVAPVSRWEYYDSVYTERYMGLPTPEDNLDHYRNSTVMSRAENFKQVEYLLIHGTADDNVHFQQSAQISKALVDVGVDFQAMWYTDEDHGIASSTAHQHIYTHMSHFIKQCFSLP

As to `COc1cc(/C=C/C(=O)CC(=O)/C=C/c2ccc(O)c(OC)c2)ccc1O` [curcumin], the “action on DPP4” value in data set [1] is recorded as “inhibits”.

As to `[Cr]` [chromium], the safety result in data set [2] (200-1,000 μg daily for up to two years) and in data set [2] (up to 1,000 μg daily for up to six months) was “used safely” in each case. Consider `N[C@@H](CC(=O)N1CCn2c(nnc2C(F)(F)F)C1)Cc1cc(F)c(F)cc1F` [Januvia, sitagliptin], for which the adverse events result in data set [3] is “diarrhea and signs of acute pancreatitis”.
